Entries after “also recorded” stand apart in the source; their conditions may differ.
How the values were obtained:
[1] = target: T1, AR (Homo sapiens, UniProt P10275, T878A); assay: DHT-stimulated AR nuclear translocation in LNCaP cells (immunofluorescent staining); format: cell-based; conditions: charcoal stripped FBS
T1 construct: endogenous in cells; host or cells: LNCaP
T1 sequence (P10275 1-920 T878A): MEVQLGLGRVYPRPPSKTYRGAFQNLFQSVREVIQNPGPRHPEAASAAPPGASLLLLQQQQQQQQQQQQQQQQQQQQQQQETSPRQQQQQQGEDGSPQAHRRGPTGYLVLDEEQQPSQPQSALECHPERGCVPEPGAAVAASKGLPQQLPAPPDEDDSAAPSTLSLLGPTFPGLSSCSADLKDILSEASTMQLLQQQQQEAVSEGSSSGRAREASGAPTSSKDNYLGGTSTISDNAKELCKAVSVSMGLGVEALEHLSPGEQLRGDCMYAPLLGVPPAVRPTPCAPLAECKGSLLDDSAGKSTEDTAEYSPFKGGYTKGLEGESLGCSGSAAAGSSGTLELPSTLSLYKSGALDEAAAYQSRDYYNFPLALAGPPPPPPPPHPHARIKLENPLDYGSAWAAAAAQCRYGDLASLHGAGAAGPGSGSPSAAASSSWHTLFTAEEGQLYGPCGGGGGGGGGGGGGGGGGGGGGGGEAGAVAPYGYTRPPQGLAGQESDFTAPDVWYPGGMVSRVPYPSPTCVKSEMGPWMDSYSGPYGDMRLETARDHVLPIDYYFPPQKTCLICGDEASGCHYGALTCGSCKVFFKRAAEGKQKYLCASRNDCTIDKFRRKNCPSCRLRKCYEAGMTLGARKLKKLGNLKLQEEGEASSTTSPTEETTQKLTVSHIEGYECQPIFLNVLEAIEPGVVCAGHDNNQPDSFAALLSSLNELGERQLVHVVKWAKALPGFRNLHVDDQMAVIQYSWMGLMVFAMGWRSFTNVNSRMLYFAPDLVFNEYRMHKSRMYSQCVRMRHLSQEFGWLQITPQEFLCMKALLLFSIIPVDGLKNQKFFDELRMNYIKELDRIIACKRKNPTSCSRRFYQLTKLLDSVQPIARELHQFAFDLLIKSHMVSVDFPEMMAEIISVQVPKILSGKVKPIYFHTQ
Description: LNCaP cells cultured in charcoal stripped FBS conditions were treated with DHT and the compounds as indicated. AR expression were visualized by immunofluorescent staining.
(§1) Next, the effects of the new AR/AKR1C3 inhibitors on AR signaling were studied. […] To further confirm the inhibitory role of the compounds in AR signaling, enzalutamide resistant C4-2B MDVR cells (which have enhanced expression of AR, AR variants, and AKR1C3) were treated with 5 μM compound 1, 5 μM compound 5, or a DMSO control. Total RNA was isolated assessed using RNAseq.

[2] = system: MCF-7 breast cancer cells; assay: Cell number of MCF-7 breast cancer cells; format: cell-based; conditions: 48 hrs
[3] = system: C4-2B MDVR cells; assay: RNAseq of genes associated with cancer cell proliferation and survival in C4-2B MDVR cells; format: cell-based; conditions: 5 μM, vs DMSO control
Description: In addition, the effect of the compounds on the expression of genes involved in cancer was studied. Enzalutamide resistant C4-2B MDVR cells were treated with 5 μM of compound 1, 2, 5, or 8, or DMSO control.

[4] = target: T2, AKR1C3 (Homo sapiens, UniProt P42330); assay: Ex vivo tumor based AKR1C3 enzyme assay (androstenedione conversion to testosterone); format: cell-based; conditions: ex vivo tumors, androstenedione 300 nmol/L, testosterone in supernatants
T2 sequence (P42330 1-323): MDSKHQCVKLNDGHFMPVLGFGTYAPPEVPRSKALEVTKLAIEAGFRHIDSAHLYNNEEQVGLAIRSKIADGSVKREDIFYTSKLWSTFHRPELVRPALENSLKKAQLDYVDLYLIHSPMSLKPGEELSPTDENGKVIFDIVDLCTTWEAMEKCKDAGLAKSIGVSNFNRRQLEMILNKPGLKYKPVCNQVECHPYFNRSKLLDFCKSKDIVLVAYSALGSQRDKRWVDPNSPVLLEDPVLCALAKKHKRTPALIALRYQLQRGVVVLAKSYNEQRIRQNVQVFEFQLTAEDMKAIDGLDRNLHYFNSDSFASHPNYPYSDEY
Description: AKR1C3 plays a crucial role in the synthesis of testosterone, by catalyzing the conversion of the adrenal androgens dehydroepiandrosterone (DHEA) and androstenedione (AD) into testosterone. To determine the effects of compound 1 on inhibition of AKR1C3 enzymatic activity an ex vivo tumor based AKR1C3 enzyme assay was conducted. LUCaP35CX tumors, which express high levels of AKR1C3, were digested with 0.1% protease and cultured in medium supplemented with 10% heat-inactivated charcoal-dextran-stripped FBS. After overnight incubation, androstenedione (300 nmol/L) was added with or without compound 1. The supernatants were collected to measure testosterone.

[5] = system: LuCaP35CR tumors; assay: LuCaP35CR PDX model in castrated SCID mice; format: in vivo
Description: The LuCaP35CR PDX model was also employed to investigate the effects of compound 1 in vivo. For this model, SCID mice were castrated and implanted with LuCaP35CR tissues. Once tumors were palpable, mice were divided into two groups: control or 20 mg/kg compound 1 administered I.P. 5 days a week for 3 weeks. Tumor volumes were measured twice weekly and mouse weights were monitored. At the end of treatment, tumors and serum were collected for assessment.

[6] = system: AR-V7; assay: RNAseq of AR-V7 signature genes in C4-2B MDVR cells; format: cell-based; conditions: 5 μM, vs DMSO control
Description: as §1

[7] = target: T2, AKR1C3; assay: Aldo-Keto Reductase (AKR) Activity Assay Kit (Colorimetric) in LNCaP-AKR1C3 cells; format: cell-based; design: expressed in transfected cells; host or cells: LNCaP-AKR1C3; conditions: 48 hrs
Description: To examine whether compound 1 and compound 2 are useful in inhibiting AKR1C3 activity, LNCaP-AKR1C3 were treated with either compound 1 or compound 2 for 48 hrs. AKR1C3 enzymatic activity was determined by Aldo-Keto Reductase (AKR) Activity Assay Kit (Colorimetric), the results of which are shown in FIG. 2. Similarly, the inhibition of AKR1C3 activity was examined with varying doses of compound 1. LNCaP-AKR1C3 cells were treated with increasing doses of compound 1 for 48 hrs.

[8] = system: VCaP tumors; assay: VCaP tumor model in intact SCID mice; format: in vivo; conditions: 20 mg/kg I.P. 5 days a week for 3 weeks
Description: Next the effects of compound 1 in vivo were studied in two separate models. First, intact SCID mice were injected with resistant prostate cancer VCaP cells suspended in matrigel. Once tumors were palpable, mice were divided into two groups: control or 20 mg/kg compound 1 administered I.P. 5 days a week for 3 weeks. Tumor volumes were measured twice weekly and mouse weights were monitored. At the end of treatment, tumors and serum were collected for assessment.

[9] = system: C4-2B MDVR cells; assay: Cell number of enzalutamide-resistant C4-2B MDVR cells; format: cell-based; conditions: 48 hrs
Description: C4-2B MDVR cells were treated with increasing doses of compound 1 for 48 hrs.
To evaluate whether compound 1 is an effective inhibitor of anti-androgen resistant cell growth, a series of resistant cells were treated with their respective anti-androgens for 48 hrs. Enzalutamide resistant MDVR cells, abiraterone resistant AbiR cells, apalutamide resistant ApaIR cells, and darolutamide resistant DaroR cells were treated with their respective anti-androgens: enza (20 μM), abi (20 μM), apal (20 μM), darolutamide (20 μM), or compound 1 (5 μM).

[10] = system: AR; assay: RNAseq of AR signaling genes in C4-2B MDVR cells; format: cell-based; conditions: 5 μM, vs DMSO control
Description: as §1

[11] = LuCaP35CR PDX, castrated SCID mice, 20 mg/kg I.P. 5 days a week for 3 weeks

Row | SMILES | AR nuclear translocation / DHT-stimulated AR nuclear expression [1] | total cell number (cell growth), increasing doses [2] | expression of genes associated with cancer cell proliferation and survival [3] | androstenedione conversion to testosterone [4] | intratumoral testosterone levels [5, 11] | mouse body weight [5, 11] | serum PSA [5, 11] | tumor volume / tumor growth ([5]; LuCaP35CR PDX, castrated SCID mice, 20 mg/kg I.P. 5 days a week for 3 weeks, 20 mg/kg) | tolerability ([5]; conclusion from VCaP and LuCaP35CR mouse models, 20 mg/kg I.P.) | expression of AR-V7 signature genes [6] | AKR1C3 enzymatic activity [7] | AKR1C3 enzymatic activity, increasing doses ([7]; increasing doses) | serum PSA ([8]; end of treatment) | mouse body weight ([8]; vs control) | tumor volume / tumor growth ([8]; vs control, 20 mg/kg) | total cell number (cell growth) [9] | total cell number (cell growth), increasing doses ([9]; increasing doses) | expression of genes associated with AR signaling (AR activity signature genes) [10]
1 | O=C(Nc1cc(C(F)(F)F)cc(C(F)(F)F)c1)c1cc(Cc2ccccc2)ccc1O [compound 1, 5-benzyl-N-(3,5-bis(trifluoromethyl)phenyl)-2-hydroxybenzamide] | capable of inhibiting DHT-stimulated AR nuclear expression; also recorded: inhibit AR nuclear translocation | inhibited in dose dependent fashion | greatly reduced expression of genes associated with cancer cell proliferation and survival; also recorded: inhibit genes associated with cancer cell proliferation and survival | dose-dependent inhibition; also recorded: inhibits the conversion from androstenedione to testosterone | significantly reduced intratumoral testosterone levels | no effect on mouse body weight | reduced | significantly decreased tumor volumes; also recorded: inhibits LuCaP35CR tumor growth | well-tolerated | reduced expression of AR-V7 signature genes; also recorded: inhibit AR-V7 activity signature genes | inhibit AKR1C3 activity | inhibited in dose-dependent fashion | significantly decreased | no effect on mouse body weight | significantly decreased tumor volume; also recorded: inhibits VCaP tumor growth | inhibit cell growth | inhibited in dose-dependent fashion | greatly reduced expression of genes associated with AR signaling; also recorded: inhibit AR activity signature genes
2 | COc1ccc(Cc2ccc(O)c(C(=O)Nc3cc(C(F)(F)F)cc(C(F)(F)F)c3)c2)cc1 [compound 5, N-(3,5-bis(trifluoromethyl)phenyl)-2-hydroxy-5-(4-methoxybenzyl)benzamide] | capable of inhibiting DHT-stimulated AR nuclear expression; also recorded: inhibit AR nuclear translocation |  | greatly reduced expression of genes associated with cancer cell proliferation and survival; also recorded: inhibit genes associated with cancer cell proliferation and survival |  |  |  |  |  |  | reduced expression of AR-V7 signature genes; also recorded: inhibit AR-V7 activity signature genes |  |  |  |  |  |  |  | greatly reduced expression of genes associated with AR signaling; also recorded: inhibit AR activity signature genes
3 | COc1ccc(C(=O)c2ccc(O)c(C(=O)Nc3cc(C(F)(F)F)cc(C(F)(F)F)c3)c2)cc1 [compound 8, N-(3,5-Bis(trifluoromethyl)phenyl)-2-hydroxy-5-(4-methoxybenzoyl)benzamide] |  |  | greatly reduced expression of genes associated with cancer cell proliferation and survival; also recorded: inhibit genes associated with cancer cell proliferation and survival |  |  |  |  |  |  |  |  |  |  |  |  |  |  | 
